These results are taken from patent publication US8778881B2 (priority 2004, dated 2014).

Bridge positions count the residues as written; N and C are the ends. Square brackets hold non-standard residues; d marks the D form. Peptide text beside a SMILES is read from it. * marks the point of attachment. Ala(4-thiazolyl) = N[C@@H](Cc1cscn1)C(=O)O; Dab(iPr) = CC(C)NCC[C@H](N)C(=O)O; 2Pal = N[C@@H](Cc1ccccn1)C(=O)O; 3Pal = N[C@@H](Cc1cccnc1)C(=O)O; 4Pal = N[C@@H](Cc1ccncc1)C(=O)O; Aad = N[C@@H](CCCC(=O)O)C(=O)O; NHCH(CH2OH)2 = OCC(CO)N*; Orn = NCCC[C@H](N)C(=O)O; Dab = NCC[C@H](N)C(=O)O; NHCH2CH2OH = OCCN*; NHiBu = CC(C)CN*; X4 = OCCOCCN*; NHOH = ON*

The first assay has as its target T1, human oxytocin (hOT) receptor (Homo sapiens, UniProt P30559).
T1 construct: expressed in transfected cells
T1 sequence (P30559 1-389): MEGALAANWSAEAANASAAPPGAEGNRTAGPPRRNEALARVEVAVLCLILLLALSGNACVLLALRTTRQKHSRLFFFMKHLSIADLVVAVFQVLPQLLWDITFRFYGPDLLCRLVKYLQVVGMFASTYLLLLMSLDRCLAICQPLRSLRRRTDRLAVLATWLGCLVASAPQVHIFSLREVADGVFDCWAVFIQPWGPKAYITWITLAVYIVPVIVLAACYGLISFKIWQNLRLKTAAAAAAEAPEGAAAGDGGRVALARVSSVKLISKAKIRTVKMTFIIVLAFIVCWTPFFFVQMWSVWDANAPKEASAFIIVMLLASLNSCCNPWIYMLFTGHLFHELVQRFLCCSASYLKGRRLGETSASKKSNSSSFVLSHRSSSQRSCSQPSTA
Kind of assay: luciferase-based transcriptional reporter assay expressing the human oxytocin (hOT) receptor, for selectivity. The class given is cell-based.
Conditions: not given
As for the experimental part:
Agonist activity of compounds on the hV1a receptor was determined in a transcriptional reporter assay by transiently transfecting a hV1a receptor expression DNA into HEK-293 cells in concert with a reporter DNA containing intracellular calcium responsive promoter elements regulating expression of firefly luciferase. See Boss, V., Talpade, D. J., Murphy, T. J. J. Biol. Chem. 1996, May 3; 271(18), 10429-10432 for further guidance on this assay. […] To determine selectivity, compounds were tested in luciferase-based transcriptional reporter assays expressing the human oxytocin (hOT) receptor. Assays for other receptors (hV2, hV1b, rat V1a and rat V2) were also conducted.
The EC50 value given is the geometric mean expressed in nanomol/L (nM). Selectivity values are given as EC50 ratios.
For orientation: In a reporter assay the amount or activity of a reporter protein is the signal.
Consider `CC[C@H](C)[C@@H]1NC(=O)[C@H](Cc2ccccc2)NC(=O)[C@@H](N)CSSC[C@@H](C(=O)N2CCC[C@H]2C(=O)N[C@@H](CCCN)C(=O)NCC(N)=O)NC(=O)[C@H](CC(N)=O)NC(=O)[C@H](CCCC(N)=O)NC1=O` [Compound 9] (H-CFI[Aad](NH2)NCP[Orn]G-NH2; disulfide 1-6), for which the “selectivity hOT/hV1a (class symbol)” value is “+ (key: +: selective hV1a receptor agonist; EC50 hOT/hV1a ratio not determined due to very low agonist efficacy (<30% compared to AVP) at the hOT receptor)”.

For the molecule `CC[C@H](C)[C@@H]1NC(=O)[C@H](Cc2ccccc2)NC(=O)[C@@H](N)CSSC[C@@H](C(=O)N2CCC[C@H]2C(=O)N[C@@H](CCN)C(=O)NCC(N)=O)NC(=O)[C@H](CC(N)=O)NC(=O)[C@H](CCCC(N)=O)NC1=O` [Compound 11] (H-CFI[Aad](NH2)NCP[Dab]G-NH2; disulfide 1-6), the “selectivity hOT/hV1a (class symbol)” value is “+ (key: +: selective hV1a receptor agonist; EC50 hOT/hV1a ratio not determined due to very low agonist efficacy (<30% compared to AVP) at the hOT receptor)”.

In the case of `CC[C@H](C)[C@@H]1NC(=O)[C@H](Cc2ccncc2)NC(=O)[C@@H](N)CSSC[C@@H](C(=O)N2CCC[C@H]2C(=O)N[C@@H](CCN)C(=O)NCC(N)=O)NC(=O)[C@H](CC(N)=O)NC(=O)[C@H](CCC(N)=O)NC1=O` [Compound 12] (H-C[4Pal]IQNCP[Dab]G-NH2; disulfide 1-6), the “selectivity hOT/hV1a (class symbol)” value was “+ (key: +: selective hV1a receptor agonist; EC50 hOT/hV1a ratio not determined due to very low agonist efficacy (<30% compared to AVP) at the hOT receptor)”.

On to `CC[C@H](C)[C@@H]1NC(=O)[C@H](Cc2ccccn2)NC(=O)[C@@H](N)CSSC[C@@H](C(=O)N2CCC[C@H]2C(=O)N[C@@H](CCN)C(=O)NCC(N)=O)NC(=O)[C@H](CC(N)=O)NC(=O)[C@H](CCC(N)=O)NC1=O` [Compound 17] (H-C[2Pal]IQNCP[Dab]G-NH2; disulfide 1-6), for which the “selectivity hOT/hV1a (class symbol)” value is on record as “+ (key: +: selective hV1a receptor agonist; EC50 hOT/hV1a ratio not determined due to very low agonist efficacy (<30% compared to AVP) at the hOT receptor)”.

Still in this assay, the particulars now being: agonist efficacy at the hOT receptor compared to AVP; ratio not determined.
For the molecule `CC[C@H](C)[C@@H]1NC(=O)[C@H](Cc2cscn2)NC(=O)[C@@H](N)CSSC[C@@H](C(=O)N2CCC[C@H]2C(=O)N[C@@H](CCN)C(=O)NCC(N)=O)NC(=O)[C@H](CC(N)=O)NC(=O)[C@H](CCC(N)=O)NC1=O` [Compound 13] (H-C[Ala(4-thiazolyl)]IQNCP[Dab]G-NH2; disulfide 1-6; N-terminus and C-terminus assumed), the “selectivity hOT/hV1a (class symbol)” value was “+ (selective hV1a receptor agonist; EC50 hOT/hV1a ratio not determined due to very low agonist efficacy (<30% compared to AVP) at the hOT receptor)”.

For `CC[C@H](C)[C@@H]1NC(=O)[C@H](Cc2ccccc2)NC(=O)[C@@H](N)CSSC[C@@H](C(=O)N2CCC[C@H]2C(=O)N[C@@H](CCCN)C(=O)NCC(N)=O)NC(=O)[C@H](CC(N)=O)NC(=O)[C@H](CCC(=O)NO)NC1=O` [Compound 16] (H-CFIE(NHOH)NCP[Orn]G-NH2; disulfide 1-6; N-terminus and C-terminus assumed), the “selectivity hOT/hV1a (class symbol)” value is on record as “+ (selective hV1a receptor agonist; EC50 hOT/hV1a ratio not determined due to very low agonist efficacy (<30% compared to AVP) at the hOT receptor)”.

Turning to `CC[C@H](C)[C@@H]1NC(=O)[C@H](Cc2cccnc2)NC(=O)[C@@H](N)CSSC[C@@H](C(=O)N2CCC[C@H]2C(=O)N[C@@H](CCN)C(=O)NCC(N)=O)NC(=O)[C@H](CC(N)=O)NC(=O)[C@H](CCC(N)=O)NC1=O` [Compound 18] (H-C[3Pal]IQNCP[Dab]G-NH2; disulfide 1-6; N-terminus and C-terminus assumed), the “selectivity hOT/hV1a (class symbol)” value is given as “+ (selective hV1a receptor agonist; EC50 hOT/hV1a ratio not determined due to very low agonist efficacy (<30% compared to AVP) at the hOT receptor)”.

On to `CC[C@H](C)[C@@H]1NC(=O)[C@H](Cc2ccccc2)NC(=O)[C@@H](N)CSSC[C@@H](C(=O)N2CCC[C@H]2C(=O)N[C@@H](CCCN)C(=O)NCC(N)=O)NC(=O)[C@H](CC(N)=O)NC(=O)[C@H](CCC(=O)NC)NC1=O` [Compound 19] (H-CFIE(NHMe)NCP[Orn]G-NH2; disulfide 1-6; N-terminus and C-terminus assumed), for which the “selectivity hOT/hV1a (class symbol)” value is given as “+ (selective hV1a receptor agonist; EC50 hOT/hV1a ratio not determined due to very low agonist efficacy (<30% compared to AVP) at the hOT receptor)”.

For the molecule `CCNC(=O)CC[C@@H]1NC(=O)[C@H]([C@@H](C)CC)NC(=O)[C@H](Cc2ccccc2)NC(=O)[C@@H](N)CSSC[C@@H](C(=O)N2CCC[C@H]2C(=O)N[C@@H](CCCN)C(=O)NCC(N)=O)NC(=O)[C@H](CC(N)=O)NC1=O` [Compound 20] (H-CFIE(NHEt)NCP[Orn]G-NH2; disulfide 1-6; N-terminus and C-terminus assumed), the “selectivity hOT/hV1a (class symbol)” value is “+ (selective hV1a receptor agonist; EC50 hOT/hV1a ratio not determined due to very low agonist efficacy (<30% compared to AVP) at the hOT receptor)”.

As for `CC[C@H](C)[C@@H]1NC(=O)[C@H](Cc2ccccc2)NC(=O)[C@@H](N)CSSC[C@@H](C(=O)N2CCC[C@H]2C(=O)N[C@@H](CCCN)C(=O)NCC(N)=O)NC(=O)[C@H](CC(N)=O)NC(=O)[C@H](CCC(=O)NCC(C)C)NC1=O` [Compound 21] (H-CFIE(NHiBu)NCP[Orn]G-NH2; disulfide 1-6; N-terminus and C-terminus assumed), the “selectivity hOT/hV1a (class symbol)” value is listed as “+ (selective hV1a receptor agonist; EC50 hOT/hV1a ratio not determined due to very low agonist efficacy (<30% compared to AVP) at the hOT receptor)”.

Turning to `CC[C@H](C)[C@@H]1NC(=O)[C@H](Cc2ccccc2)NC(=O)[C@@H](N)CSSC[C@@H](C(=O)N2CCC[C@H]2C(=O)N[C@@H](CCNC(C)C)C(=O)NCC(N)=O)NC(=O)[C@H](CC(N)=O)NC(=O)[C@H](CCCC(N)=O)NC1=O` [Compound 22] (H-CFI[Aad](NH2)NCP[Dab(iPr)]G-NH2; disulfide 1-6; N-terminus and C-terminus assumed), the “selectivity hOT/hV1a (class symbol)” value was “+ (selective hV1a receptor agonist; EC50 hOT/hV1a ratio not determined due to very low agonist efficacy (<30% compared to AVP) at the hOT receptor)”.

Regarding `CC[C@H](C)[C@@H]1NC(=O)[C@H](Cc2ccccc2)NC(=O)[C@@H](N)CSSC[C@@H](C(=O)N2CCC[C@H]2C(=O)N[C@@H](CCCN)C(=O)NCC(N)=O)NC(=O)[C@H](CC(N)=O)NC(=O)[C@H](CC(=O)NCCO)NC1=O` [Compound 23] (H-CFID(NHCH2CH2OH)NCP[Orn]G-NH2; disulfide 1-6; N-terminus and C-terminus assumed), the “selectivity hOT/hV1a (class symbol)” value was “+ (selective hV1a receptor agonist; EC50 hOT/hV1a ratio not determined due to very low agonist efficacy (<30% compared to AVP) at the hOT receptor)”.

Consider `CC[C@H](C)[C@@H]1NC(=O)[C@H](Cc2ccccc2)NC(=O)[C@@H](N)CSSC[C@@H](C(=O)N2CCC[C@H]2C(=O)N[C@@H](CCCN)C(=O)NCC(N)=O)NC(=O)[C@H](CC(N)=O)NC(=O)[C@H](CC(=O)NO)NC1=O` [Compound 24] (H-CFID(NHOH)NCP[Orn]G-NH2; disulfide 1-6; N-terminus and C-terminus assumed), for which the “selectivity hOT/hV1a (class symbol)” value was “+ (selective hV1a receptor agonist; EC50 hOT/hV1a ratio not determined due to very low agonist efficacy (<30% compared to AVP) at the hOT receptor)”.

`CC[C@H](C)[C@@H]1NC(=O)[C@H](Cc2ccccc2)NC(=O)[C@@H](N)CSSC[C@@H](C(=O)N2CCC[C@H]2C(=O)N[C@@H](CCCN)C(=O)NCC(N)=O)NC(=O)[C@H](CC(N)=O)NC(=O)[C@H](CC(=O)NC(CO)CO)NC1=O` [Compound 27] (H-CFID(NHCH(CH2OH)2)NCP[Orn]G-NH2; disulfide 1-6; N-terminus and C-terminus assumed): the “selectivity hOT/hV1a (class symbol)” value is “+ (selective hV1a receptor agonist; EC50 hOT/hV1a ratio not determined due to very low agonist efficacy (<30% compared to AVP) at the hOT receptor)”.

For `CC[C@H](C)[C@@H]1NC(=O)[C@H](Cc2ccccc2)NC(=O)[C@@H](N)CSSC[C@@H](C(=O)N2CCC[C@H]2C(=O)N[C@@H](CCCN)C(=O)NCC(N)=O)NC(=O)[C@H](CC(N)=O)NC(=O)[C@H](CC(=O)NCCOCCO)NC1=O` [Compound 29] (H-CFID(X4)NCP[Orn]G-NH2; disulfide 1-6; N-terminus and C-terminus assumed), the “selectivity hOT/hV1a (class symbol)” value is “+ (selective hV1a receptor agonist; EC50 hOT/hV1a ratio not determined due to very low agonist efficacy (<30% compared to AVP) at the hOT receptor)”.

With `CC[C@H](C)[C@@H]1NC(=O)[C@H](Cc2ccccc2)NC(=O)[C@@H](N)CSSC[C@@H](C(=O)N2CCC[C@H]2C(=O)N[C@@H](CCCN)C(=O)NCC(N)=O)NC(=O)[C@H](CC(N)=O)NC(=O)[C@H](CC(N)=O)NC1=O` [Compound 30] (H-CFINNCP[Orn]G-NH2; disulfide 1-6; N-terminus and C-terminus assumed), the “selectivity hOT/hV1a (class symbol)” value is “+ (selective hV1a receptor agonist; EC50 hOT/hV1a ratio not determined due to very low agonist efficacy (<30% compared to AVP) at the hOT receptor)”.
